Consider four compounds from ChEMBL document CHEMBL4422658, “Calixarene-based phosphinic acids as inhibitors of protein tyrosine phosphatases” (Bioorg Med Chem Lett, 2019).

For experiment [1], the target named is T1, Tyrosine-protein phosphatase non-receptor type 1 (Homo sapiens, UniProt P18031).
T1 sequence (P18031 whole entry): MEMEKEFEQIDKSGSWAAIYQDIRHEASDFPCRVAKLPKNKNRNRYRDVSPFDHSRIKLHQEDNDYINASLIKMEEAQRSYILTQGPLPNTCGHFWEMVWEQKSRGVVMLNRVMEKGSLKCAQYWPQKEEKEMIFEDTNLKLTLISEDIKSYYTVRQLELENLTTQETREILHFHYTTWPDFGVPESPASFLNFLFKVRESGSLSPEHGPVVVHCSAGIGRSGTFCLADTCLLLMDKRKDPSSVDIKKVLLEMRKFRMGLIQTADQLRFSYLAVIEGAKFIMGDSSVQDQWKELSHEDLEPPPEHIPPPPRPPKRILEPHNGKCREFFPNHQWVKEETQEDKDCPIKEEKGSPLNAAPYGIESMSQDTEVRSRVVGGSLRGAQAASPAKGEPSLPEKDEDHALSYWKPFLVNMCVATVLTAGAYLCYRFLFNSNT
The experiment can be described thus: Inhibition of recombinant human PTP1B expressed in Escherichia coli using […] as substrate preincubated with substrate for 5 mins followed by enzyme addition.

For experiment [2], the target named is T2, Tyrosine-protein phosphatase non-receptor type 2 (Homo sapiens, UniProt P17706).
T2 sequence (P17706 whole entry): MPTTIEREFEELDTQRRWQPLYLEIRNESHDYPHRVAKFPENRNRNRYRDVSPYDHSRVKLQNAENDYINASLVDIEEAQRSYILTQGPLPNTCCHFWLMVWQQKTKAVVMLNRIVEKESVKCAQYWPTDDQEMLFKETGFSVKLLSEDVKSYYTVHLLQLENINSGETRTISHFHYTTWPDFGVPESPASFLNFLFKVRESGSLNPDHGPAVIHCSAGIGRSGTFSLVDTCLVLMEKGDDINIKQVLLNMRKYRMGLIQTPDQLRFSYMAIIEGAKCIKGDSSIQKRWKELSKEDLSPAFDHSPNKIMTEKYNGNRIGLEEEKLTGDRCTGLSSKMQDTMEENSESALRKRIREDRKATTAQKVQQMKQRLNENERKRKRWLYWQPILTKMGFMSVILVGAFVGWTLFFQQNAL
Briefly: Inhibition of recombinant human N-terminal GST-tagged TCPTP catalytic domain (2 to 315 residues) expressed in Escherichia coli using […] as substrate preincubated with substrate for 5 mins followed by enzyme addition.

Experiment [3] addresses T3, Tyrosine-protein phosphatase non-receptor type 9 (Homo sapiens, UniProt P43378).
T3 sequence (P43378 whole entry): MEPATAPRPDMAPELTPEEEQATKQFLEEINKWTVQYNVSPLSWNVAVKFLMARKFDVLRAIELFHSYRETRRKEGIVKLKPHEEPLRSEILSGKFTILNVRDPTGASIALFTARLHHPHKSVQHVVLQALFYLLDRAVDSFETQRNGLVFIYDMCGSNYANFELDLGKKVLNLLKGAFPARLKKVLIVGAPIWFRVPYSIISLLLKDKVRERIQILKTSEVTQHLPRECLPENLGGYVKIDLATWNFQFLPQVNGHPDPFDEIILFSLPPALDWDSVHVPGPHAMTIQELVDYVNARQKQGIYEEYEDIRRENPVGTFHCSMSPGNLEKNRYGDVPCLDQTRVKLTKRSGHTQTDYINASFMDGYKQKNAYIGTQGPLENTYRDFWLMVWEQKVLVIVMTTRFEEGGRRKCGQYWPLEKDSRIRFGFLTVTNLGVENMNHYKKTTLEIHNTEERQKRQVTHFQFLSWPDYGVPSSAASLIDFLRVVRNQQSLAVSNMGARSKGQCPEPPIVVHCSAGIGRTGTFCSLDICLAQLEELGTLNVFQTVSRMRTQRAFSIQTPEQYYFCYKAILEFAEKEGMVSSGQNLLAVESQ
Briefly: Inhibition of recombinant human N-terminal GST-tagged MEG2 catalytic domain (285 to 593 residues) expressed in Escherichia coli using […] as substrate preincubated with substrate for 5 mins followed by enzyme addition.

Experiment [4] concerns the target T4, Tyrosine-protein phosphatase non-receptor type 4 (Homo sapiens, UniProt P29074).
T4 sequence (P29074 whole entry): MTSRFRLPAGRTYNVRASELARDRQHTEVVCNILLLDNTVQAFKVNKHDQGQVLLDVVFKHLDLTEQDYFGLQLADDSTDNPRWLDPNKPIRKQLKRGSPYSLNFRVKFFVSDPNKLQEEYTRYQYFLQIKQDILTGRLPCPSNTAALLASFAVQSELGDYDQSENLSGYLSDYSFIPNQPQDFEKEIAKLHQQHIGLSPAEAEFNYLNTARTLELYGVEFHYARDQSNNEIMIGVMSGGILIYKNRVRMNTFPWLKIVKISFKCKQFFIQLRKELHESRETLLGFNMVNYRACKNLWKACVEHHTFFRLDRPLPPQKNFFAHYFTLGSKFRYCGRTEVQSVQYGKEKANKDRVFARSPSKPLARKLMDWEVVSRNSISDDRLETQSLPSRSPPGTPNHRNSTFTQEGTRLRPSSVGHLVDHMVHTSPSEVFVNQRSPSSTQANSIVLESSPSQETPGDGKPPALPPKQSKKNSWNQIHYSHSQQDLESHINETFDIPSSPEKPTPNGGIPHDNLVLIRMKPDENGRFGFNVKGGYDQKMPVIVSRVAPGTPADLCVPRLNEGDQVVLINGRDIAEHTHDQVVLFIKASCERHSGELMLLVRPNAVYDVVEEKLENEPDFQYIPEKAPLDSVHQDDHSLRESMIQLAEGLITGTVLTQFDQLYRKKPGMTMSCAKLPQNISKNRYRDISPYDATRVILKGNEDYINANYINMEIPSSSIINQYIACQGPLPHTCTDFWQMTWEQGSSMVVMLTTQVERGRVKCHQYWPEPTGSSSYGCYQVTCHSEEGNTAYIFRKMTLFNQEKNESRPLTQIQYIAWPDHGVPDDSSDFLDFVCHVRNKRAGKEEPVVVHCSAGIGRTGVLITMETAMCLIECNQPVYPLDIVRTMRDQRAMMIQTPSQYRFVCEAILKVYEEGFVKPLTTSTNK
The experiment can be described thus: Inhibition of recombinant human N-terminal GST-tagged MEG1 catalytic domain (637 to 926 residues) expressed in Escherichia coli using […] as substrate preincubated with substrate for 5 mins followed by enzyme addition.

The target in experiment [5] is T5, Tyrosine-protein phosphatase non-receptor type 11 (Homo sapiens, UniProt Q06124).
T5 sequence (Q06124 whole entry): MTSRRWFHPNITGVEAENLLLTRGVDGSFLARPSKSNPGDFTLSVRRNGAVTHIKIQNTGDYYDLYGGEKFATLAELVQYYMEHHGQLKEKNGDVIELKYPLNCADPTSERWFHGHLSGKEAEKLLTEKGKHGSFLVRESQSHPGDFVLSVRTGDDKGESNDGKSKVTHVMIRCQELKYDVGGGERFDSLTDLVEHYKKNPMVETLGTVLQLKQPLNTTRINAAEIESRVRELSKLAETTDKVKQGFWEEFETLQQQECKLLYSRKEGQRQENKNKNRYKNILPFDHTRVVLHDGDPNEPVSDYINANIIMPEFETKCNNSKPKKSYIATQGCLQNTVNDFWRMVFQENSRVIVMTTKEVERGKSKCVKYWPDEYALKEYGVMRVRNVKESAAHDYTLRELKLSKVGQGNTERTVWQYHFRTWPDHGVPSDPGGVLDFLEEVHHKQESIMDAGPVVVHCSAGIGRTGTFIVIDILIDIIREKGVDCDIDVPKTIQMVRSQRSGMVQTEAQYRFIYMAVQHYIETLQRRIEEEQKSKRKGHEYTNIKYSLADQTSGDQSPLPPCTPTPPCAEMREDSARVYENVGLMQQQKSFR
Briefly: Inhibition of recombinant human SHP2 expressed in Escherichia coli using […] as substrate preincubated with substrate for 5 mins followed by enzyme addition.

In experiment [6] the target is T1, Tyrosine-protein phosphatase non-receptor type 1. Briefly: Competitive inhibition of recombinant human PTP1B expressed in Escherichia coli using varying levels of […] as substrate by Lineweaver-burk plot analysis.
Experiment [7] is filed under the species Homo sapiens. The experiment can be described thus: Selectivity ratio of IC50 for recombinant human N-terminal GST-tagged TCPTP catalytic domain (2 to 315 residues) expressed in Escherichia coli to IC50 for recombinant human PTP1B expressed in Escherichia coli.
For experiment [8], the species on record is Homo sapiens. The experiment can be described thus: Selectivity ratio of IC50 for recombinant human N-terminal GST-tagged MEG2 catalytic domain (285 to 593 residues) expressed in Escherichia coli to IC50 for recombinant human PTP1B expressed in Escherichia coli.
Experiment [9] is filed under the species Homo sapiens. Briefly: Selectivity ratio of IC50 for recombinant human N-terminal GST-tagged MEG1 catalytic domain (637 to 926 residues) expressed in Escherichia coli to IC50 for recombinant human PTP1B expressed in Escherichia coli.
For experiment [10], the species on record is Homo sapiens. Briefly: Selectivity ratio of IC50 for recombinant human SHP2 expressed in Escherichia coli to IC50 for recombinant human PTP1B expressed in Escherichia coli.

For orientation: IC50 means the concentration that gives 50% inhibition. Turning to `O=P(O)(Cc1cc2c(O)c(c1)Cc1cc(CP(=O)(O)c3ccccc3)cc(c1O)Cc1cc(CP(=O)(O)c3ccccc3)cc(c1O)Cc1cc(CP(=O)(O)c3ccccc3)cc(c1O)C2)c1ccccc1`, the IC50 in [1] turned out to be 2800 nM; in experiment [2], 20000 nM; in experiment [3] it was 2400 nM; in experiment [4] it was 30000 nM; in [5], 4600 nM.

The Ki is the dissociation constant of the complex between target and ligand, obtained from inhibition or displacement. As for `O=P(O)(Cc1cc2c(O)c(c1)S(=O)(=O)c1cc(CP(=O)(O)c3ccccc3)cc(c1O)S(=O)(=O)c1cc(CP(=O)(O)c3ccccc3)cc(c1O)S(=O)(=O)c1cc(CP(=O)(O)c3ccccc3)cc(c1O)S2(=O)=O)c1ccccc1`, the IC50 amounted to 79 nM in experiment [1]; 280 nM in experiment [2]; 410 nM in [3]; 180 nM in experiment [4]; 500 nM in [5]. Besides, the inhibition constant (Ki) in [6] was found to be 32 nM.

Consider `CCOP(=O)(O)Cc1cc2c(O)c(c1)Sc1cc(CP(=O)(O)OCC)cc(c1O)Sc1cc(CP(=O)(O)OCC)cc(c1O)Sc1cc(CP(=O)(O)OCC)cc(c1O)S2`, for which the Ratio IC50 in the experiment filed under Homo sapiens [7] is 15.

With `O=P(O)(Cc1cc2c(O)c(c1)Sc1cc(CP(=O)(O)c3ccccc3)cc(c1O)Sc1cc(CP(=O)(O)c3ccccc3)cc(c1O)Sc1cc(CP(=O)(O)c3ccccc3)cc(c1O)S2)c1ccccc1`, the half-maximal inhibitory concentration (IC50) in experiment [1] amounted to 380 nM; in [2] it was 6800 nM; in [3] it was 5900 nM; in [4] it was 5400 nM; in experiment [5], 3700 nM. The Ratio IC50 in the experiment filed under Homo sapiens [7] is 15; in the experiment filed under Homo sapiens [8], 10 to 18; in the experiment listed under Homo sapiens [9], 10 to 18; in the experiment filed under Homo sapiens [10], 10 to 18. In addition, the Ki in experiment [6] stood at 140 nM.
